Assays:
Assay in all cases: relative viability (nuclei count vs DMSO), 5 days (fraction); higher = more cells survive
[1] = test system: A549
Outline: (§1)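 Relative viability equals treated-well nuclei counts divided by vehicle-well nuclei counts. Counts came from 4× images of lung cancer cell lines grown in 1536-well plates for 5 days after pin-tool dosing on the day after seeding. Dosing used one drug alone or a fixed anchor-drug dose plus five library-drug doses (not always all listed) in √10 steps, and values are medians of duplicate plates.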

[2] = test system: Calu-6
Outline: as §1

[3] = test system: EBC-1
Outline: as §1

[4] = test system: IA-LM
Outline: as §1

[5] = test system: NCI-H1299
Outline: as §1

[6] = test system: NCI-H1703
Outline: as §1

[7] = test system: NCI-H2009
Outline: as §1

[8] = test system: NCI-H460
Outline: as §1

[9] = test system: NCI-H661
Outline: as §1

## C=C1C(=O)O[C@@H](CCCCCCCC)[C@@H]1C(=O)O [C-75] + CS(=O)(=O)CCNCc1ccc(-c2ccc3ncnc(Nc4ccc(OCc5cccc(F)c5)c(Cl)c4)c3c2)o1 [Lapatinib] (partner 2 µM)
[1]; first compound 0.08 µM
  relative viability: 1.01
[1]; first compound 0.253 µM
  relative viability: 1.1
[1]; first compound 0.8 µM
  relative viability: 0.798
[1]; first compound 2.53 µM
  relative viability: 0.937
[1]; first compound 8 µM
  relative viability: 0.89
[2]; first compound 0.08 µM
  relative viability: 1.03
[2]; first compound 0.253 µM
  relative viability: 1.06
[2]; first compound 0.8 µM
  relative viability: 1.04
[2]; first compound 2.53 µM
  relative viability: 0.894
[2]; first compound 8 µM
  relative viability: 0.925
[3]; first compound 0.08 µM
  relative viability: 0.259
[3]; first compound 0.253 µM
  relative viability: 0.237
[3]; first compound 0.8 µM
  relative viability: 0.18
[3]; first compound 2.53 µM
  relative viability: 0.243
[3]; first compound 8 µM
  relative viability: 0.224
[4]; first compound 0.08 µM
  relative viability: 0.816
[4]; first compound 0.253 µM
  relative viability: 0.954
[4]; first compound 8 µM
  relative viability: 0.476
[5]; first compound 0.08 µM
  relative viability: 0.971
[5]; first compound 0.253 µM
  relative viability: 1
[5]; first compound 0.8 µM
  relative viability: 0.935
[5]; first compound 2.53 µM
  relative viability: 0.946
[5]; first compound 8 µM
  relative viability: 0.955
[6]; first compound 0.08 µM
  relative viability: 1.17
[6]; first compound 0.8 µM
  relative viability: 0.977
[6]; first compound 2.53 µM
  relative viability: 1.17
[6]; first compound 8 µM
  relative viability: 0.888
[7]; first compound 0.08 µM
  relative viability: 0.984
[7]; first compound 0.253 µM
  relative viability: 0.88
[7]; first compound 0.8 µM
  relative viability: 0.901
[7]; first compound 2.53 µM
  relative viability: 0.939
[7]; first compound 8 µM
  relative viability: 0.762
[8]; first compound 0.08 µM
  relative viability: 0.951
[8]; first compound 0.253 µM
  relative viability: 1.38
[8]; first compound 0.8 µM
  relative viability: 0.847
[8]; first compound 8 µM
  relative viability: 0.884
[9]; first compound 0.08 µM
  relative viability: 0.51
[9]; first compound 0.253 µM
  relative viability: 0.554
[9]; first compound 0.8 µM
  relative viability: 0.43
[9]; first compound 2.53 µM
  relative viability: 0.396
[9]; first compound 8 µM
  relative viability: 0.407

## NC(=O)Nc1cc(-c2cccc(F)c2)sc1C(=O)N[C@H]1CCCNC1 [AZD7762] + CS(=O)(=O)N1CCN(Cc2cc3nc(-c4cccc5[nH]ncc45)nc(N4CCOCC4)c3s2)CC1 [Pictilisib] (partner 1 µM)
[1]; first compound 0.01 µM
  relative viability: 0.548
[1]; first compound 0.03162 µM
  relative viability: 0.587
[1]; first compound 0.1 µM
  relative viability: 0.641
[1]; first compound 0.3162 µM
  relative viability: 0.368
[1]; first compound 1 µM
  relative viability: 0.107
[2]; first compound 0.01 µM
  relative viability: 0.882
[2]; first compound 0.03162 µM
  relative viability: 0.875
[2]; first compound 0.1 µM
  relative viability: 0.691
[2]; first compound 0.3162 µM
  relative viability: 0.17
[2]; first compound 1 µM
  relative viability: 0.113
[3]; first compound 0.01 µM
  relative viability: 0.429
[3]; first compound 0.03162 µM
  relative viability: 0.447
[3]; first compound 0.1 µM
  relative viability: 0.375
[3]; first compound 0.3162 µM
  relative viability: 0.28
[3]; first compound 1 µM
  relative viability: 0.166
[4]; first compound 0.01 µM
  relative viability: 0.48
[4]; first compound 0.03162 µM
  relative viability: 0.456
[4]; first compound 0.1 µM
  relative viability: 0.538
[4]; first compound 0.3162 µM
  relative viability: 0.48
[4]; first compound 1 µM
  relative viability: 0.0832
[5]; first compound 0.01 µM
  relative viability: 0.98
[5]; first compound 0.03162 µM
  relative viability: 0.882
[5]; first compound 0.1 µM
  relative viability: 0.622
[5]; first compound 0.3162 µM
  relative viability: 0.248
[5]; first compound 1 µM
  relative viability: 0.116
[6]; first compound 0.01 µM
  relative viability: 0.234
[6]; first compound 0.03162 µM
  relative viability: 0.252
[6]; first compound 0.1 µM
  relative viability: 0.224
[6]; first compound 0.3162 µM
  relative viability: 0.189
[6]; first compound 1 µM
  relative viability: 0.129
[7]; first compound 0.01 µM
  relative viability: 0.867
[7]; first compound 0.03162 µM
  relative viability: 0.865
[7]; first compound 0.1 µM
  relative viability: 0.909
[7]; first compound 0.3162 µM
  relative viability: 0.677
[7]; first compound 1 µM
  relative viability: 0.321
[8]; first compound 0.01 µM
  relative viability: 0.356
[8]; first compound 0.03162 µM
  relative viability: 0.382
[8]; first compound 0.1 µM
  relative viability: 0.417
[8]; first compound 0.3162 µM
  relative viability: 0.342
[8]; first compound 1 µM
  relative viability: 0.175
[9]; first compound 0.01 µM
  relative viability: 0.41
[9]; first compound 0.03162 µM
  relative viability: 0.406
[9]; first compound 0.1 µM
  relative viability: 0.356
[9]; first compound 0.3162 µM
  relative viability: 0.316
[9]; first compound 1 µM
  relative viability: 0.312

## Oc1nc(-c2ccc(C(F)(F)F)cc2)nc2c1CSCC2 [XAV939] + C[C@]1(O)C[C@@H](c2nc(-c3ccc4ccc(-c5ccccc5)nc4c3)c3c(N)nccn32)C1 [Linsitinib] (partner 1 µM)
[1]; first compound 0.08 µM
  relative viability: 0.696
[1]; first compound 0.253 µM
  relative viability: 0.526
[1]; first compound 0.8 µM
  relative viability: 0.486
[1]; first compound 2.53 µM
  relative viability: 0.51
[2]; first compound 0.08 µM
  relative viability: 0.981
[2]; first compound 0.253 µM
  relative viability: 1.04
[2]; first compound 0.8 µM
  relative viability: 0.953
[2]; first compound 2.53 µM
  relative viability: 0.856
[3]; first compound 0.08 µM
  relative viability: 1.02
[3]; first compound 0.253 µM
  relative viability: 0.832
[3]; first compound 0.8 µM
  relative viability: 0.809
[3]; first compound 2.53 µM
  relative viability: 0.754
[4]; first compound 0.08 µM
  relative viability: 0.565
[4]; first compound 0.253 µM
  relative viability: 0.512
[4]; first compound 0.8 µM
  relative viability: 0.505
[4]; first compound 2.53 µM
  relative viability: 0.458
[5]; first compound 0.08 µM
  relative viability: 1.03
[5]; first compound 0.253 µM
  relative viability: 0.878
[5]; first compound 0.8 µM
  relative viability: 0.948
[5]; first compound 2.53 µM
  relative viability: 0.948
[6]; first compound 0.08 µM
  relative viability: 1.31
[6]; first compound 0.253 µM
  relative viability: 1.02
[6]; first compound 0.8 µM
  relative viability: 0.969
[6]; first compound 2.53 µM
  relative viability: 0.584
[7]; first compound 0.08 µM
  relative viability: 1.19
[7]; first compound 0.253 µM
  relative viability: 0.904
[7]; first compound 0.8 µM
  relative viability: 1.17
[7]; first compound 2.53 µM
  relative viability: 1.09
[8]; first compound 0.08 µM
  relative viability: 0.988
[8]; first compound 0.253 µM
  relative viability: 0.651
[8]; first compound 0.8 µM
  relative viability: 0.959
[8]; first compound 2.53 µM
  relative viability: 0.778
[9]; first compound 0.08 µM
  relative viability: 0.653
[9]; first compound 0.253 µM
  relative viability: 0.568
[9]; first compound 0.8 µM
  relative viability: 0.649
[9]; first compound 2.53 µM
  relative viability: 0.35
